Among the test systems are SF-295; OVCAR-8; MCF7; T47D; MDA-MB-435; M14; SNB-75; UACC-257; HCT-15; NCI-H226; SK-OV-3; NCI-H460; OVCAR-5; HCT-116; HOP-62; HT-29; NCI-H23; UACC-62; A498.
Assay in all cases: growth of human tumour cells (NCI), 48 h

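Growth conditions: 96-well plates. Treatment: test compound, 48 hours, 5 concentrations. Analysis: linear interpolation between bracketing concentrations; unreached endpoints set to highest concentration. GI50 is the concentration that inhibits growth by half.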 Calls of active or inactive are those of the source. Rule as the data show it: active = GI50 up to about 1.1 µM and inactive = higher.

For the compound `Nc1sc2c(c1C(=O)c1ccc(Cl)c(Cl)c1)CCCC2`, the GI50 was 37.2 µM (inactive) in the assay on SF-295; 67 µM (inactive) with OVCAR-8; 18.7 µM (inactive) in the assay on MCF7; 36.2 µM (inactive) in the assay on T47D; 30.8 µM (inactive) in the assay with MDA-MB-435; 44.1 µM (inactive) in the assay with M14. In addition, the GI50 was 12.1 µM (inactive) in the assay with SNB-75; 54.8 µM (inactive) in the assay with UACC-257; 50.6 µM in the assay on HCT-15; > 100 µM (inactive) with NCI-H226; > 100 µM (inactive) in the assay on SK-OV-3; 40.1 µM (inactive) in the assay on NCI-H460. Besides, the GI50 was > 100 µM (inactive) with OVCAR-5; 40.4 µM (inactive) with HCT-116; 83.6 µM (inactive) in the assay on HOP-62; 36.4 µM (inactive) with HT-29; 45.3 µM (inactive) in the assay on NCI-H23; 92 µM (inactive) in the assay with UACC-62.

For `CC1(C)N=C(N)N=C(N)N1c1ccc(CCCCc2ccc(Cl)cc2Cl)cc1`, the GI50 was 0.893 µM (active) with SF-295; 0.598 µM (active) with OVCAR-8; 0.453 µM (active) in the assay with MCF7; 1.29 µM (inactive) in the assay on T47D; 0.598 µM (active) in the assay with MDA-MB-435; 0.914 µM (active) in the assay on M14. The GI50 in the assay on UACC-257 is 0.659 µM (active); with HCT-15, 5.04 µM; in the assay with SK-OV-3, 0.746 µM (active); in the assay on NCI-H460, 0.0165 µM (active); in the assay with A498, 12.8 µM (inactive); in the assay with OVCAR-5, 4.31 µM (inactive). The GI50 with HCT-116 was 0.247 µM (active); with HOP-62, 1.08 µM (active); in the assay on HT-29, 0.546 µM (active); with NCI-H23 it was 0.339 µM (active).

Consider `COc1ccc(O[C@H](CO)C[C@@H]2COC(C)(C)O2)cc1`, for which the GI50 with SF-295, with OVCAR-8, with MCF7, with MDA-MB-435, in the assay on M14 and with SNB-75 was > 100 µM (inactive) throughout. Further, the GI50 was > 100 µM (inactive) in the assay on UACC-257; more than 100 µM in the assay on HCT-15; > 100 µM (inactive) in the assay with NCI-H226; > 100 µM (inactive) in the assay with SK-OV-3; > 100 µM (inactive) with NCI-H460; > 100 µM (inactive) in the assay on A498. The GI50 with OVCAR-5, in the assay on HCT-116, in the assay with HOP-62, with HT-29, with NCI-H23 and in the assay on UACC-62 was > 100 µM (inactive) throughout.

Turning to `NC(=O)C(=Cn1c(=S)[nH]c2ccc([N+](=O)[O-])cc21)C(N)=O`, the GI50 in the assay with SF-295 was > 100 µM (inactive); with OVCAR-8 it was > 100 µM (inactive); in the assay on T47D it was > 100 µM (inactive); in the assay on MDA-MB-435, > 100 µM (inactive); in the assay on M14, > 100 µM (inactive); in the assay on SNB-75, 97.9 µM (inactive). Besides, the GI50 is > 100 µM (inactive) in the assay on UACC-257; more than 100 µM with HCT-15; 28.8 µM (inactive) in the assay on NCI-H226; > 100 µM (inactive) in the assay on SK-OV-3; > 100 µM (inactive) in the assay on NCI-H460; > 100 µM (inactive) in the assay on A498. Also, the GI50 in the assay on OVCAR-5, in the assay on HCT-116, in the assay on HOP-62, in the assay on HT-29, in the assay on NCI-H23 and with UACC-62 was > 100 µM (inactive) throughout.

On to `OCC(O)C(Cl)CCl` (centres undefined), for which the GI50 with SF-295, in the assay on OVCAR-8, in the assay with MCF7, in the assay with T47D, in the assay with M14 and with SNB-75 was > 100 µM (inactive) throughout. The GI50 was > 100 µM (inactive) with UACC-257; more than 100 µM in the assay on HCT-15; > 100 µM (inactive) with NCI-H226; > 100 µM (inactive) with SK-OV-3; > 100 µM (inactive) in the assay on NCI-H460; > 10 µM (inactive) with A498. For the same compound, the GI50 in the assay with OVCAR-5, in the assay on HCT-116, with HOP-62, with HT-29, in the assay on NCI-H23 and in the assay on UACC-62 was > 100 µM (inactive) each time.

Consider `Cn1nc2c(c1N)Cc1c(nn(C)c1N)-c1ccccc1-2`, for which the GI50 with SF-295, with OVCAR-8, in the assay with MCF7, in the assay on T47D, in the assay on MDA-MB-435 and in the assay with M14 was > 100 µM (inactive) in each case. In addition, the GI50 with UACC-257 was > 100 µM (inactive); in the assay on HCT-15 it was more than 100 µM; in the assay on NCI-H226, > 100 µM (inactive); with SK-OV-3, > 100 µM (inactive); with NCI-H460, > 100 µM (inactive); in the assay on A498, 20.2 µM (inactive). For the same compound, the GI50 in the assay with OVCAR-5, with HCT-116, with HOP-62, in the assay with HT-29, in the assay on NCI-H23 and in the assay on UACC-62 was > 100 µM (inactive) each time.

On to `CC(C)C/N=C(\N)N=C(N)N`, for which the GI50 in the assay on SF-295, with OVCAR-8, in the assay with MCF7, with T47D, in the assay on MDA-MB-435 and in the assay with M14 was > 100 µM (inactive) throughout. The GI50 in the assay on SNB-75 was > 100 µM (inactive); in the assay on UACC-257, > 100 µM (inactive); in the assay with HCT-15 it was more than 100 µM; with NCI-H226, > 100 µM (inactive); in the assay on SK-OV-3 it was > 100 µM (inactive); in the assay on NCI-H460, > 100 µM (inactive). Moreover, the GI50 with OVCAR-5, with HCT-116, in the assay with HOP-62, in the assay with HT-29, with NCI-H23 and with UACC-62 was > 100 µM (inactive) throughout.

Consider `C=CC(=C)CCC(Br)C(C)(C)Cl` (centres undefined), for which the GI50 with SF-295 is > 100 µM (inactive); with OVCAR-8 it was > 100 µM (inactive); in the assay with MCF7, 46.6 µM (inactive); with T47D, > 100 µM (inactive); in the assay on MDA-MB-435, > 100 µM (inactive); in the assay on M14 it was > 100 µM (inactive). For the same compound, the GI50 in the assay on SNB-75 is > 100 µM (inactive); with UACC-257, > 100 µM (inactive); with HCT-15 it was more than 100 µM; with NCI-H226 it was > 100 µM (inactive); in the assay on SK-OV-3 it was > 100 µM (inactive); in the assay on NCI-H460, > 100 µM (inactive). The GI50 with OVCAR-5, in the assay on HCT-116, in the assay on HOP-62, in the assay on HT-29, with NCI-H23 and in the assay with UACC-62 was > 100 µM (inactive) in each case.

`CN(C)CCNC(=O)Cn1ccc(=O)c2cc([N+](=O)[O-])ccc21`: the GI50 with SF-295, in the assay with MCF7, in the assay with T47D, with MDA-MB-435, with M14 and in the assay on UACC-257 was > 100 µM (inactive) in each case. Also, the GI50 was more than 100 µM in the assay with HCT-15; > 100 µM (inactive) in the assay with NCI-H226; > 100 µM (inactive) in the assay on SK-OV-3; > 100 µM (inactive) in the assay with NCI-H460; > 100 µM (inactive) with A498; > 100 µM (inactive) with OVCAR-5. For the same compound, the GI50 in the assay on HCT-116, with HOP-62, with HT-29, with NCI-H23 and in the assay on UACC-62 was > 100 µM (inactive) each time.

Regarding `C=C1[C@@H](OC(C)=O)/C=C/C2C3C(=O)[C@@](C)(OC(C)=O)[C@H]([C@H](OC(C)=O)[C@]4(O)[C@@H](C)C(=O)O[C@H]4[C@H]1Cl)[C@@]23C` (some centres undefined), the GI50 in the assay with SF-295, in the assay with OVCAR-8, in the assay on T47D, with MDA-MB-435, in the assay on M14 and with SNB-75 was > 100 µM (inactive) each time. Also, the GI50 in the assay on UACC-257 was > 100 µM (inactive); with HCT-15, more than 100 µM; in the assay on NCI-H226 it was > 100 µM (inactive); with SK-OV-3, > 100 µM (inactive); with NCI-H460, > 100 µM (inactive); in the assay with A498, > 100 µM (inactive). For the same compound, the GI50 in the assay on OVCAR-5, with HCT-116, in the assay with HOP-62, in the assay on HT-29, in the assay on NCI-H23 and in the assay on UACC-62 was > 100 µM (inactive) throughout.

For the compound `CC1CC(OP(=O)(OCc2ccccc2)OCc2ccccc2)[C@@H](OCc2ccccc2)C(OCc2ccccc2)C1OCc1ccccc1` (some centres undefined), the GI50 is 75.5 µM (inactive) with SF-295; > 100 µM (inactive) in the assay on OVCAR-8; 40.2 µM (inactive) in the assay on MCF7; 41.8 µM (inactive) in the assay on T47D; > 100 µM (inactive) in the assay on M14; 39.5 µM (inactive) in the assay on SNB-75. Besides, the GI50 was 76.6 µM (inactive) in the assay on UACC-257; more than 100 µM in the assay on HCT-15; > 100 µM (inactive) with NCI-H226; > 100 µM (inactive) in the assay on SK-OV-3; 34.3 µM (inactive) in the assay with NCI-H460; > 100 µM (inactive) in the assay on OVCAR-5. The GI50 was 17.9 µM (inactive) in the assay on HCT-116; > 100 µM (inactive) with HOP-62; 67.9 µM (inactive) with HT-29; 25.3 µM (inactive) in the assay with NCI-H23; > 100 µM (inactive) with UACC-62.

The values are drawn from ChEMBL document CHEMBL1201862, “PubChem BioAssay data set” (2004).
